Measured values taken from patent publication US10577373B2, “TYK2 inhibitors and uses thereof” (Nimbus Lakshmi, Inc., priority 2017, dated 2020).
Like-named read-outs stand apart in the source and are kept apart here.

Key:
[1] = test system: IL-12 induced STAT4 phophorylation mediated by Tyk2/JAK2 (heterodimeric complex); test: IL-12 Induced pSTAT4 in Human PBMC; assay type: cell-based; conditions: 1.7 ng/mL IL-12
Description: The IL-12 Induced pSTAT4 assay evaluates the inhibition of IL-12 induced STAT4 phophorylation mediated by Tyk2/JAK2 (heterodimeric complex).

[2] = test system: GM-CSF induced STAT5 phosphorylation mediated by the JAK2/JAK2 homdimeric complex; test: GM-CSF Induced pSTAT5 in Human PBMC; conditions: Homo sapiens, PBMC, 20 min
Description: Human PBMC are isolated from buffy coat and are stored frozen for assays as needed.

[3] = read-out: PBMC_GMCSF_pSTAT5 IC50, human PBMC, GM-CSF 5 ng/mL for 20 minutes, pSTAT5
[4] = read-out: PBMC_GMCSF_pSTAT5 IC50

`CNc1cc(Nc2cccn(-c3ncc(C)s3)c2=O)nc2c(C(=O)N[C@H]3CC[C@@H]3O)cnn12` (stereo in doubt) [I-676, N-(2-hydroxycyclobutyl)-7-(methylamino)-5-((1-(5-methylthiazol-2-yl)-2-oxo-1,2-dihydropyridin-3-yl)amino)pyrazolo[1,5-a]pyrimidine-3-carboxamide] was tested, and the IC50 [1] was < 100 nM and the IC50 [2, 3] was > 2500 nM.
For `CNc1cc(Nc2cc(Cl)cn(-c3ccn(C4CC4)n3)c2=O)nc2c(C(=O)NC3CC3)cnn12` [I-331], the IC50 [1] was < 100 nM and the IC50 [2, 3] was > 12500 nM.
For `[2H]C([2H])([2H])Oc1ncccc1Nc1cc(NC)n2ncc(C(=O)N[C@@H]3CCC[C@@H](O)C3)c2n1` [I-499], the IC50 [1] was < 100 nM and the IC50 [2, 3] was > 50000 nM.
With `CNc1cc(Nc2cccnc2OC2CC2)nc2c(C(=O)N[C@@H]3CC[C@@H]3O)cnn12` [I-401] the IC50 [1] was < 100 nM and the IC50 [2, 3] was > 12500 nM.
In the case of `[2H]C([2H])([2H])Oc1ncccc1Nc1cc(NC)n2ncc(C(=O)N[C@@H]3CC[C@H]3O)c2n1` [I-410], the IC50 [1] is reported as < 100 nM and the IC50 [2, 3] is reported as > 12500 nM.
`CNc1cc(Nc2cccnc2OC2CC2)nc2c(C(=O)NC3CC3)cnn12` [I-215, 5-((2-cyclopropoxypyridin-3-yl)amino)-N-cyclopropyl-7-(methylamino) pyrazolo[1,5-a]pyrimidine-3-carboxamide] was tested, and the IC50 [1] was < 100 nM and the IC50 [2, 3] was > 50000 nM.
With `CNc1cc(Nc2cccn(-c3cc(C)on3)c2=O)nc2c(C(=O)NC3CCC3)cnn12` [I-160] the IC50 [1] was < 100 nM and the IC50 [2, 3] was > 12500 nM.
`CNc1cc(Nc2cc(C)cnc2OCCOC)nc2c(C(=O)NC3CC3)cnn12` [I-281] was tested, and the IC50 [1] was 100 to 500 nM and the IC50 [2, 3] was > 2500 nM.
With `CNc1cc(-c2c[nH]c3c(C4CCOCC4)cc(Cl)cc23)nc2c(C(N)=O)cnn12` [I-190] the IC50 [1] was < 100 nM and the IC50 [2, 3] was > 12500 nM.
For `CNc1cc(Nc2cc(Cl)cn(C3CCCN(C)C3)c2=O)nc2c(C(=O)N[C@@H]3C[C@@H]3F)cnn12` (stereo partly shown) [I-759], the IC50 [1] was < 100 nM and the IC50 [2, 3] was > 50000 nM.
For `CNc1cc(Nc2cccn([C@@H]3CCCOC3)c2=O)nc2c(C(=O)N[C@H]3CC[C@H]3O)cnn12` [I-751], the IC50 [1] was < 100 nM and the IC50 [2, 3] was > 12500 nM.
`CNc1cc(Nc2cc(F)cn(-c3ccccn3)c2=O)nc2c(C(=O)N[C@H]3C[C@H]3F)cnn12` [I-194] was tested, and the IC50 [1] was < 100 nM and the IC50 [2, 3] was > 12500 nM.
`CNc1cc(Nc2cccnc2OC)nc2c(C(=O)NCC3(CO)CC3)cnn12` [I-425] was tested, and the IC50 [1] was < 100 nM and the IC50 [2, 4] was > 50000 nM.
In the case of `CNc1cc(Nc2cccn(-c3cccc(C(C)(C)O)n3)c2=O)nc2c(C(=O)NC3CCC3)cnn12` [I-156], the IC50 [1] is reported as < 100 nM and the IC50 [2, 3] is reported as > 12500 nM.
With `CCOc1ccc(-n2cccc(Nc3cc(NC)n4ncc(C(=O)N[C@H]5C[C@H]5F)c4n3)c2=O)nn1` [I-117] the IC50 [1] was < 100 nM and the IC50 [2, 3] was > 2500 nM.
For `[2H]C([2H])([2H])Oc1ncccc1Nc1cc(NC)n2ncc(C(=O)NC3CCC3)c2n1` [I-176], the IC50 [1] was < 100 nM and the IC50 [2, 3] was > 50000 nM.
`CNc1cc(Nc2cc(F)cn(-c3ccn(C)n3)c2=O)nc2c(C(=O)N[C@H]3C[C@H]3F)cnn12` [I-379] was tested, and the IC50 [1] was < 100 nM and the IC50 [2, 3] was > 2500 nM.
With `CNc1cc(Nc2cccnc2OC2CC2)nc2c(C(=O)NCC(C)CO)cnn12` (stereo not shown) [I-435] the IC50 [1] was 100 to 500 nM and the IC50 [2, 3] was > 50000 nM.
`[2H]C([2H])([2H])Nc1cc(Nc2cccnc2OC2CC2)nc2c(C(=O)N[C@@H]3C[C@@H]3F)cnn12` (stereo in doubt) [I-375, 5-((2-cyclopropoxypyridin-3-yl)amino)-N-((1R,2S)-2-fluorocyclopropyl)-7-((methyl-d3)amino)pyrazolo[1,5-a]pyrimidine-3-carboxamide] was tested, and the IC50 [1] was < 100 nM and the IC50 [2, 3] was > 50000 nM.
With `CCONC(=O)c1cnn2c(NC)cc(Nc3cccn(-c4ncccc4F)c3=O)nc12` [I-798, N-ethoxy-5-((3′-fluoro-2-oxo-2H-[1,2′-bipyridin]-3-yl)amino)-7-(methylamino) pyrazolo[1,5-a]pyrimidine-3-carboxamide] the IC50 [1] was […] and the IC50 [2, 4] was > 50000 nM.
With `CNc1cc(Nc2cccn(-c3cnn(CC4CCOCC4)c3)c2=O)nc2c(C(=O)NC3CC3)cnn12` [I-406] the IC50 [1] was 100 to 500 nM and the IC50 [2, 3] was > 12500 nM.
In the case of `CNc1cc(Nc2cc(Cl)cn(-c3ccnc(C)n3)c2=O)nc2c(C(=O)N[C@H]3C[C@H]3F)cnn12` [I-317], the IC50 [1] is reported as < 100 nM and the IC50 [2, 3] is reported as > 2500 nM.
`CNc1cc(Nc2cccc(-c3cn(C)nc3F)n2)nc2c(C(=O)N[C@@H]3C[C@@H]3F)cnn12` [I-860] was tested, and the IC50 [1] was < 100 nM and the IC50 [2, 3] was > 50000 nM.
`CNc1cc(Nc2cccc(N3CCCC3=O)n2)nc2c(C(=O)N[C@H]3C[C@H]3F)cnn12` [I-244] was tested, and the IC50 [1] was < 100 nM and the IC50 [2, 3] was > 12500 nM.
With `CNc1cc(-c2cn(CCN3CCN(C)CC3)c3ncccc23)nc2c(C(=O)N[C@H]3CC[C@@H]3OC)cnn12` [I-952] the IC50 [1] was 100 to 500 nM and the IC50 [2, 3] was > 2500 nM.
In the case of `CNc1cc(Nc2cccn(C3CCCN(CCF)C3)c2=O)nc2c(C(=O)N[C@@H]3C[C@@H]3F)cnn12` (stereo partly shown) [I-849], the IC50 [1] is reported as 100 to 500 nM and the IC50 [2, 3] is reported as > 50000 nM.
